Reference: patent US7258862B2, “Mushroom extracts having anticancer activity” (Gavish-Galilee Bio Aplications Ltd., priority 2004, dated 2007)
“Also recorded” adds a separate entry of the source.

Key:
Format in all cases: cell-based, human
[1] = test system: PARP; assay: PARP cleavage Western blot in K562 cells; settings: 500 μg/ml and 250 μg/ml, 48 hours, Western blot (FIGS. 2A-2B)
[2] = test system: p210^Bcr-Abl; assay: Western blot of p210 Bcr-Abl expression in K562 cells; settings: extracts 500 μg/ml and 250 μg/ml, AG957 10 μM and 20 μM, 48 hours, Western blot (FIGS. 3A-3B)
[3] = test system: K562 cells; assay: Apostain ELISA assay (DNA condensation, apoptosis) in K562 cells; settings: 48 h; for Relative Apostain Value: K562, solvent-treated sample = 1
[4] = test system: K562 cells; assay: Erythroid differentiation: hemoglobin production in K562 cells

Row | Compound | Cleavage of PARP in K562 cells (in words) [1] | Effect on p210^Bcr-Abl expression levels in K562 cells (in words) [2] | Relative Apostain Value ([3]; 10 μM) | Relative Apostain Value ([3]; 20 μM) | Induction of apoptosis / increase in DNA condensation in K562 cells (in words) ([3]; extracts 250 and 500 μg/ml, AG957 10 μM) | Relative Hemoglobin ([4]; 1 mM, day 5, K562, solvent-treated sample = 1.0) | Induction of hemoglobin production / erythroid differentiation in K562 cells (in words) ([4]; day 5 post-treatment, versus DMSO-treated cells)
1 | COC(=O)c1ccc(NCc2cc(O)ccc2O)cc1 [AG957] | significantly activates PARP cleavage; also recorded: significant cleavage of PARP | reduction in Bcr-Abl protein levels | 6.2 | 3.9 | significantly induced an increase in DNA condensation | – | –
2 | CCCC(=O)O [Butyric Acid, butyric acid] | – | – | – | – | – | 9.4 | active in inducing hemoglobin expression
